This experiment concerns the target human RIP1 kinase domain (2-375) (Homo sapiens (Human), UniProt Q13546). Description: biochemical. The settings on record: RIP1 kinase inhibition, tight-binding apparent Ki, 50 nM enzyme, 50 μM ATP, 2 hours incubation.
human RIP1 kinase domain (2-375), sequence (Q13546 2-375): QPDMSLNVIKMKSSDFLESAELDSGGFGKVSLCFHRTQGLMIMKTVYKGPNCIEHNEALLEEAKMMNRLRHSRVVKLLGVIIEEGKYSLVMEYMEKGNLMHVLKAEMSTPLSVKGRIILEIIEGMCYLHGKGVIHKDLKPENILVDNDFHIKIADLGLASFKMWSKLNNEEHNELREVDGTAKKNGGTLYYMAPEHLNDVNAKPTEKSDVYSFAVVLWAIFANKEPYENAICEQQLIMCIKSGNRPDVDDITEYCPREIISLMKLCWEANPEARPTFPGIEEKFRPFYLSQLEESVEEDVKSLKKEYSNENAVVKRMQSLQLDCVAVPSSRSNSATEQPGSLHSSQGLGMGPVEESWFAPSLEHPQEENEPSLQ
Description: RIP1 Kinase Inhibition Assays (Biochemical Assay)
The ability of the receptor interacting protein kinase (RIPK1) to catalyze the hydrolysis of adenosine-5′-triphosphate (ATP) is monitored using the Transcreener ADP (adenosine-5′-diphosphate) assay (BellBrook Labs). Purified human RIP1 kinase domain (2-375) (50 nM) derived from a baculovirus-infected insect cell expression system is incubated with test compounds for 2 hours in 50 mM Hepes buffer (pH 7.5) containing 30 mM MgCl2, 1 mM dithiothreitol, 50 μM ATP, 0.002% Brij-35, and 0.5% dimethyl sulfoxide (DMSO). […] The tracer bound to the antibody is displaced by the ADP generated during the RIP1K reaction, which causes a decrease in fluorescence polarization that is measured by laser excitation at 633 nm with a FP microplate reader M1000. Fractional activity was plotted against test article concentration. Using Genedata Screener software (Genedata; Basel, Switzerland), the data were fit to the tight-binding apparent inhibition constant (Ki^app) Morrison equation [Williams, J. W. and Morrison, J. F. (1979) The kinetics of reversible tight-binding inhibition. […] The following equation was used to calculate fractional activity and Ki^app:
[formula] where [E]T and [I]T are the total concentrations of active enzyme and test article, respectively.
For the compound `O=C(c1cc2n(n1)[C@H](c1ccccc1)C[C@@H]2F)C1CC1` (racemic) [Example 78, cyclopropyl-[rac-(4S,6S)-4-fluoro-6-phenyl-5,6-dihydro-4H-pyrrolo[1,2-b]pyrazol-2-yl]methanone], the Ki stood at 20 nM.

As to `N#CC1CC1C(=O)c1nc2n(n1)[C@H](c1ccccc1)C[C@@H]2F` (mixture of isomers) [Example 86, 2-[rac-(5S,7S)-7-fluoro-5-phenyl-6,7-dihydro-5H-pyrrolo[1,2-b][1,2,4]triazole-2-carbonyl]-cyclopropanecarbonitrile], the Ki was 160 nM.

On to `[2H][C@]1(Cl)C[C@@H](c2ccccc2)n2nc(C(=O)C3CC3)nc21` (racemic) [Example 119, cyclopropyl-[rac-(5S,7S)-7-chloro-7-deuterio-5-phenyl-5,6-dihydropyrrolo[1,2-b][1,2,4]triazol-2-yl]methanone], for which the Ki worked out at 36 nM. The figure for `[2H][C@@]1(Cl)C[C@@H](c2ccccc2)n2nc(C(=O)C3CC3)nc21` (racemic) [Example 120, cyclopropyl-[rac-(5S,7R)-7-chloro-7-deuterio-5-phenyl-5,6-dihydropyrrolo[1,2-b][1,2,4]triazol-2-yl]methanone] is 910 nM. In the case of `CC(F)(F)[C@@H]1C[C@H](F)c2nc(C(=O)C3CC3)nn21` (racemic) [Example 122, cyclopropyl-[rac-(5S,7S)-5-(1,1-difluoroethyl)-7-fluoro-6,7-dihydro-5H-pyrrolo[1,2-b][1,2,4]triazol-2-yl]methanone], the Ki came to 360 nM.

On to `CCC1(C(=O)c2nc3n(n2)[C@H](c2ccccc2)C[C@@H]3F)CC1` (racemic) [Example 125, (1-ethylcyclopropyl)-[rac-(5S,7S)-7-fluoro-5-phenyl-6,7-dihydro-5H-pyrrolo[1,2-b][1,2,4]triazol-2-yl]methanone], for which the Ki was determined as 4 nM. With `O=C(c1nc2n(n1)[C@H](c1ccccc1)C[C@@H]2F)C1CCOCC1` (racemic) [Example 126, [rac-(5S,7S)-7-fluoro-5-phenyl-6,7-dihydro-5H-pyrrolo[1,2-b][1,2,4]triazol-2-yl]-tetrahydropyran-4-yl-methanone], the Ki was found to be 57 nM. Turning to `O=C(c1nc2n(n1)[C@H](c1ccccc1)C[C@@H]2F)C1CCCOC1` (mixture of isomers) [Example 127, [rac-(5S,7S)-7-fluoro-5-phenyl-6,7-dihydro-5H-pyrrolo[1,2-b][1,2,4]triazol-2-yl]-tetrahydropyran-3-yl-methanone], the Ki was 16 nM. In the case of `O=C(c1nc2n(n1)[C@H](c1ccccc1)C[C@@H]2F)[C@H]1CCCN1` (racemic) [Example 128, [rac-(5S,7S)-7-fluoro-5-phenyl-6,7-dihydro-5H-pyrrolo[1,2-b][1,2,4]triazol-2-yl]-[rac-(2R)-pyrrolidin-2-yl]methanone], the Ki was determined as 650 nM.

Take `CC1(C(=O)c2nc3n(n2)[C@H](c2ccccc2)C[C@@H]3F)CCCO1` (mixture of isomers) [Example 129, (2-methyltetrahydrofuran-2-yl)-[rac-(5S,7S)-7-fluoro-5-phenyl-6,7-dihydro-5H-pyrrolo[1,2-b][1,2,4]triazol-2-yl]methanone]: the Ki came to 47 nM. On to `O=C(c1nc2n(n1)[C@H](c1ccccc1)C[C@@H]2F)C1CCOC1` (mixture of isomers) [Example 130, [rac-(5S,7S)-7-fluoro-5-phenyl-6,7-dihydro-5H-pyrrolo[1,2-b][1,2,4]triazol-2-yl]-tetrahydrofuran-3-yl-methanone], for which the Ki was 8 nM. Take `O=C(c1nc2n(n1)[C@H](c1ccccc1)C[C@@H]2F)[C@H]1CCOC1` (racemic) [Example 131, [rac-(5S,7S)-7-fluoro-5-phenyl-6,7-dihydro-5H-pyrrolo[1,2-b][1,2,4]triazol-2-yl]-[rac-(3S)-tetrahydrofuran-3-yl]methanone]: the Ki was below 5 nM. In the case of `O=C(c1nc2n(n1)[C@H](c1ccccc1)C[C@@H]2F)[C@@H]1CCOC1` (racemic) [Example 132, [rac-(5S,7S)-7-fluoro-5-phenyl-6,7-dihydro-5H-pyrrolo[1,2-b][1,2,4]triazol-2-yl]-[rac-(3R)-tetrahydrofuran-3-yl]methanone], the Ki is below 5 nM. As for `COCC(C)(C)C(=O)c1nc2n(n1)[C@H](c1ccccc1)C[C@@H]2F` (racemic) [Example 133, 3-methoxy-2,2-dimethyl-1-[rac-(5S,7S)-7-fluoro-5-phenyl-6,7-dihydro-5H-pyrrolo[1,2-b][1,2,4]triazol-2-yl]propan-1-one], the Ki is below 5 nM. In the case of `O=C(c1nc2n(n1)[C@H](c1ccccc1)C[C@@H]2F)[C@H](O)C(F)(F)F` (racemic) [Example 134, rac-(2S)-3,3,3-trifluoro-2-hydroxy-1-[rac-(5S,7S)-7-fluoro-5-phenyl-6,7-dihydro-5H-pyrrolo[1,2-b][1,2,4]triazol-2-yl]propan-1-one], the Ki is 220 nM. Regarding `O=C(CC1CCCCO1)c1nc2n(n1)[C@H](c1ccccc1)C[C@@H]2F` (mixture of isomers) [Example 135, 1-[rac-(5S,7S)-7-fluoro-5-phenyl-6,7-dihydro-5H-pyrrolo[1,2-b][1,2,4]triazol-2-yl]-2-tetrahydropyran-2-yl-ethanone], the Ki worked out at 180 nM. In the case of `O=C(CC1CCOCC1)c1nc2n(n1)[C@H](c1ccccc1)C[C@@H]2F` (racemic) [Example 136, 1-[rac-(5S,7S)-7-fluoro-5-phenyl-6,7-dihydro-5H-pyrrolo[1,2-b][1,2,4]triazol-2-yl]-2-tetrahydropyran-4-yl-ethanone], the Ki was 32 nM. Consider `C[C@@]1(C(=O)c2nc3n(n2)[C@H](c2ccccc2)C[C@@H]3F)CCOC1` (racemic) [Example 137, [rac-(5S,7S)-7-fluoro-5-phenyl-6,7-dihydro-5H-pyrrolo[1,2-b][1,2,4]triazol-2-yl]-[rac-(3R)-3-methyltetrahydrofuran-3-yl]methanone], for which the Ki is below 5 nM.

Take `C[C@]1(C(=O)c2nc3n(n2)[C@H](c2ccccc2)C[C@@H]3F)CCOC1` (racemic) [Example 138, [rac-(5S,7S)-7-fluoro-5-phenyl-6,7-dihydro-5H-pyrrolo[1,2-b][1,2,4]triazol-2-yl]-[rac-(3S)-3-methyltetrahydrofuran-3-yl]methanone]: the Ki is below 5 nM. For `O=C(c1nc2n(n1)[C@H](c1ccccc1)C[C@@H]2F)[C@@H]1C[C@@H]2CC[C@H]1O2` (racemic) [Example 139, [rac-(5S,7S)-7-fluoro-5-phenyl-6,7-dihydro-5H-pyrrolo[1,2-b][1,2,4]triazol-2-yl]-[rac-(1R,2R,4S)-7-oxabicyclo[2.2.1]heptan-2-yl]methanone], the Ki amounted to 140 nM. In the case of `O=C(COC(F)(F)F)c1nc2n(n1)[C@H](c1ccccc1)C[C@@H]2F` (racemic) [Example 142, 1-[rac-(5S,7S)-7-fluoro-5-phenyl-6,7-dihydro-5H-pyrrolo[1,2-b][1,2,4]triazol-2-yl]-2-(trifluoromethoxy)ethanone], the Ki was found to be 9 nM.

With `O=C(c1nc2n(n1)[C@H](c1ccccc1)C[C@@H]2F)[C@@]12COC[C@@H]1C2` (racemic) [Example 143, [rac-(5S,7S)-7-fluoro-5-phenyl-6,7-dihydro-5H-pyrrolo[1,2-b][1,2,4]triazol-2-yl]-[rac-(1R,5R)-3-oxabicyclo[3.1.0]hexan-1-yl]methanone], the Ki was below 5 nM.
